In one experiment the test system is Sccit. Kind of experiment: 1,5-[^14C]-citrate transport assay in E. coli expressing Sccit. The class given is cell-based, Streptomyces coelicolor. As to conditions: E. coli AA93 Δfec or JW4251-2 ΔfecA, induced with 0.5 mM IPTG for 1 hour. Here is the method: E. coli AA93 and JW4251-2 cultures were grown in LB as described above. Protein expression for transport assays was induced at 30.0° C. with 0.5 mM Isopropyl β-D-thiogalacto-pyranoside (IPTG) at an OD600 of 1.0 for 1 hour. Subsequent flux assays followed the protocol described above for S. coelicolor and previous literature protocol (A19) with the following adaptations: cells were resuspended with 10 mL of PIPES buffer at 6.5 for all metals, and the transport assay was conducted at 37.0° C. except for iron (25° C.). Non-induced controls were included in all runs. Concentration of metal ion and citrate were chosen to maximize the formation of the desired metal-citrate complex (see Table 2). Experiments were performed using at least three independent cultures and each time point was collected in triplicate per run. Incubation of the metal ion (except for Fe^3+ as described above) and pre-complexation of the metal with [^14C]-citrate prior to cell addition yielded similar results. Experiments were also conducted, specifically for Fe^3+-citrate uptake, involving reducing the IPTG induction temperature in E. coli down to 4° C. (see FIG. 5). This was to observe actual uptake of the iron complex.

The subject of experiment [1] is Streptomyces coelicolor A3(2). Kind of experiment: 1,5-[^14C]-citrate transport assay in whole cells, Streptomyces coelicolor A3(2). To be noted: for uptake of citrate in the presence of metal ion: S. coelicolor grown in broth with citrate as sole carbon source (SMMC), PIPES pH 6.5, 4.4 μM citrate; for uptake of citrate or metal-citrate species above background: S. coelicolor grown with glucose (SMMG), for Fe^3+ SMMG supplemented with 36 μM FeCl3.6H2O. The class given is cell-based. Here is the method: S. coelicolor A3(2) cells were grown from stocks for 48-72 hours at 28° C. and 300 rpm. Cells were collected via centrifugation and washed twice with 50 mM chelexed piperazine-N,N′-bis(2-ethanesulfonic acid) (PIPES) buffer, pH 6.5. Cells were resuspended to an OD of 0.2 after the second wash. 100 μl of cells were added to 2.2 ml microcentrifuge tubes. 5 μl of metal as the chloride salt was then added from the following stock solution concentrations (220 mM CaCl2 or BaCl2, 22 mM MgCl2, NiCl2, 22 mM CoCl2, PbCl2, MnCl2 and 1.65 mM FeCl3). Different molar amounts of metals were used to maximize metal-citrate complex formation as per MINTEQ calculations (A12) and successfully used in a previous literature report (A19). Cells were then incubated at 30° C. for 8 minutes with shaking. At 8 minutes, 5 μl of 96.8 μM 1,5-[^14C]-citrate was added to each sample to provide a final concentration of 4.4 μM. Uptake was stopped by addition of 2 mL of 0.1 M LiCl. This was followed by immediate filtration through cellulose nitrate filters ([…], 2.1 cm diameter). The filters were washed with 2×2 mL of 0.1 M LiCl solution and radioactivity was recorded using a liquid scintillation counter. In every experimental run, background radioactivity was gauged by adding 2 mls of LiCl prior to addition of the radiolabelled citrate. As before, cells were then immediately filtered, washed with 2×2 mL of 0.1 M LiCl and radioactivity monitored. This served as the background and was subtracted from final data. Experiments were performed using at least three independent cultures and each time point was collected in triplicate per run. 4×100 μl of cells from each run were filtered directly through pre-weighed cellulose nitrate filter paper and dried to determine average cell sample weight. Transport assays were also ‘stopped’ using 10 mM HEPES-glucose buffer instead of 0.1 M LiCl to check for the occurrence of ‘leaking’, which has been postulated to occur with the use of LiCl (A22). No noticeable difference was observed across multiple cultures tested in either S. coelicolor (or E. coli as described below).
It is important to note that pre-incubating the ‘free’ metal prior to addition of ^14[C]-citrate or synthesizing the complex and then adding it to the cells made no difference to experimental results consistent with the work reported by Lolkema et al. (A19), except in the case of Fe^3+. Transport assays with Fe^3+ were performed at 25.0° C. with the metal precomplexed to [^14C]-citrate to prevent Fe^3+ precipitation in the aqueous buffer. The temperature and pH change were accounted for in MINTEQ calculations. All experiments using precomplexed mixtures were filtered using a 0.45 μm syringe filter (Fisher Scientific) prior to addition to cells.

The subject of another experiment is S. coelicolor. Kind of experiment: Growth of S. coelicolor in CHELEX-washed, metal-free SMMC broth. The class given is cell-based, Streptomyces coelicolor. The protocol: Streptomyces coelicolor A3(2) was obtained from a third party supplier and the American Type culture collection (BAA-471). S. coelicolor A3(2) stocks were grown in Yeast-Extract Malt Extract broth (YEME) at 28° C. in 125 mL baffled flasks to an Optical Density at 600 nm (OD600) of ˜2.0. 20% glycerol was added to the cells in a 1:1 volume ratio and the cells were chilled on ice for 1 hour and placed at −80° C. still in the ice container. After 24 hours the cells were taken out of the ice container and at −80° C. Streptomyces coelicolor was grown in Streptomyces Minimal Medium (SMM) broth for functional characterization studies. SMM was prepared as previously reported (A17) with the following modifications; L-asparagine was replaced with ammonium sulfate (1 g L^−1), agar was eliminated and either [56 mM] sodium citrate (SMMC) or [56 mM] glucose (SMMG) was added as the sole carbon source. 50 ml of SMMC or SMMG broths were inoculated with 1 ml of S. coelicolor A3(2) stock solutions and grown for 48-72 hrs at 28° C. and 300 rpm shaking in 125 mL baffled flasks.
In addition, growth of S. coelicolor was arrested in CHELEX-washed, metal-free SMMC broth. This arrest could be prevented by addition of Fe^3+ (or Ca^2+) but not Mg^2+ or Ni^2+ to SMMC.

Molecules are shown by their SMILES. Structures can show the parent of a compound that is named as a salt.

Take `O=C(O)CC(O)(CC(=O)O)C(=O)O` [free citrate]: the “uptake of 1,5-[^14C]-citrate with metal ion cofactor” value (from here on “uptake of 1,5-[^14C]-citrate”) in the experiment on Sccit is given as “not transported”. Besides, in experiment [1], the “uptake of citrate in the presence of metal ion” value (“uptake of citrate … of metal ion” for short) was “no uptake” and the “uptake of citrate or metal-citrate species above background” value is “No uptake”.
For the compound `[Mg+2]` [Mg^2+], in the experiment with Sccit, the “uptake of 1,5-[^14C]-citrate” value is given as “did not result in citrate uptake”. Also, in the experiment on S. coelicolor, the “prevention of growth arrest by addition of metal ion” value (shortened to “prevention of growth arrest”) is given as “not”. In experiment [1], the “uptake of citrate … of metal ion” value is on record as “no greater than the rate of uptake without metal ions” and the “uptake of citrate or metal-citrate species above background” value is reported as “No uptake”.
For `[Ba+2]` [Ba^2+], the “uptake of citrate or metal-citrate species above background” value in experiment [1] is “No uptake”.
As for `[Co+2]` [Co^2+], the “uptake of 1,5-[^14C]-citrate” value in the experiment with Sccit was “did not result in citrate uptake”. Also, in experiment [1], the “uptake of citrate … of metal ion” value was “no greater than the rate of uptake without metal ions” and the “uptake of citrate or metal-citrate species above background” value is given as “No uptake”.
With `[Fe+3]` [Fe^3+], the “uptake of 1,5-[^14C]-citrate” value in the experiment with Sccit is “uptake of 1,5-[^14C]-citrate observed”. In addition, the “prevention of growth arrest” value in the experiment on S. coelicolor is on record as “prevented”. Further, in experiment [1], the “uptake of citrate … of metal ion” value was “uptake was dependent on the presence” and the “uptake of citrate or metal-citrate species above background” value was “significant uptake”.
Regarding `O=C(O)CN(CCOCCOCCN(CC(=O)O)CC(=O)O)CC(=O)O` [EGTA, ethylene glycol tetraacetic acid, reference compound], in experiment [1] (in the presence of 10 mM Ca^2+), the “EGTA concentration at which citrate uptake decreased to zero” value is given as “over 1 mM”.
Take `[Pb+2]` [Pb^2+]: the “uptake of 1,5-[^14C]-citrate” value in the experiment on Sccit was “uptake of 1,5-[^14C]-citrate observed”. In addition, the “uptake of citrate or metal-citrate species above background” value in experiment [1] is reported as “No uptake”.
With `[Ca+2]` [Ca^2+], the “uptake of 1,5-[^14C]-citrate” value with Sccit is “uptake of 1,5-[^14C]-citrate observed”. Moreover, in the experiment on S. coelicolor, the “prevention of growth arrest” value was “prevented”. For the same compound, the “uptake of citrate or metal-citrate species above background” value in experiment [1] was “No uptake”.
With `[Ni+2]` [Ni^2+], the “uptake of 1,5-[^14C]-citrate” value in the experiment on Sccit is “did not result in citrate uptake”. In addition, in the experiment with S. coelicolor, the “prevention of growth arrest” value was “not”. For the same compound, in experiment [1], the “uptake of citrate … of metal ion” value is “no greater than the rate of uptake without metal ions” and the “uptake of citrate or metal-citrate species above background” value is on record as “No uptake”.
Consider `O=C([O-])CC(O)(CC(=O)[O-])C(=O)[O-].[Fe+3]` [Fe^3+-citrate], for which, in experiment [1] (S. coelicolor grown in SMM containing glucose, no iron in broth), the “Fe^3+-citrate uptake, iron absent from growth broth” value is “greatly reduced”.
